Experimental data taken from PubChem BioAssay (NCI).
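1) Cells in 96-well plates. 2) Compound, 48 h, 5 concentrations. 3) Linear interpolation between surrounding doses. 4) Unreached endpoint = highest concentration. The concentration for 50% growth inhibition is given as GI50. TGI is the concentration that stops growth completely.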

Assays:
Assay in all cases: NCI anticancer screen, dose series, 48 h
OVCAR-5 ovarian = system: OVCAR-5 ovarian
PC-3 prostate = system: PC-3 prostate
SF-295 CNS = system: SF-295 CNS
SK-OV-3 ovarian = system: SK-OV-3 ovarian
T-47D breast = system: T-47D breast
SR leukemia = system: SR leukemia
HOP-62 NSCLC = system: HOP-62 NSCLC
U251 CNS = system: U251 CNS
HT29 colon = system: HT29 colon
UACC-62 melanoma = system: UACC-62 melanoma
A549 NSCLC = system: A549 NSCLC
NCI-H460 lung = system: NCI-H460 lung
NCI/ADR-RES ovarian = system: NCI/ADR-RES ovarian
SW-620 colon = system: SW-620 colon
OVCAR-8 ovarian = system: OVCAR-8 ovarian
OVCAR-4 ovarian = system: OVCAR-4 ovarian
SK-MEL-28 melanoma = system: SK-MEL-28 melanoma
HS 578T breast = system: HS 578T breast
MDA-MB-435 = system: MDA-MB-435
EKVX NSCLC = system: EKVX NSCLC
SN12C renal = system: SN12C renal
NCI-H522 lung = system: NCI-H522 lung
MALME-3M melanoma = system: MALME-3M melanoma
OVCAR-3 ovarian = system: OVCAR-3 ovarian
LOX IMVI melanoma = system: LOX IMVI melanoma
SNB-75 CNS = system: SNB-75 CNS
HOP-92 NSCLC = system: HOP-92 NSCLC
RPMI-8226 leukemia = system: RPMI-8226 leukemia
HCT-15 colon = system: HCT-15 colon
KM12 colon = system: KM12 colon
NCI-H23 lung = system: NCI-H23 lung
NCI-H226 lung = system: NCI-H226 lung
MDA-MB-231 breast = system: MDA-MB-231 breast
HL-60(TB) leukemia = system: HL-60(TB) leukemia
DU-145 prostate = system: DU-145 prostate
786-0 renal = system: 786-0 renal
ACHN renal = system: ACHN renal
RXF 393 renal = system: RXF 393 renal
SNB-19 CNS = system: SNB-19 CNS
SF-268 CNS = system: SF-268 CNS
TK-10 renal = system: TK-10 renal
HCT-116 colon = system: HCT-116 colon
UO-31 renal = system: UO-31 renal
UACC-257 melanoma = system: UACC-257 melanoma
M14 melanoma = system: M14 melanoma
MOLT-4 leukemia = system: MOLT-4 leukemia
SK-MEL-2 melanoma = system: SK-MEL-2 melanoma
HCC-2998 colon = system: HCC-2998 colon
BT-549 breast = system: BT-549 breast
A498 renal = system: A498 renal
CCRF-CEM leukemia = system: CCRF-CEM leukemia
MCF7 breast = system: MCF7 breast
SF-539 CNS = system: SF-539 CNS
CAKI-1 renal = system: CAKI-1 renal
IGROV1 ovarian = system: IGROV1 ovarian
K-562 leukemia = system: K-562 leukemia
COLO 205 colon = system: COLO 205 colon

Oc1[nH]c2ccc(Cl)cc2c1/C=c1/ccc2c(c1)N=C(c1ccc(F)cc1)N=2
GI50 (OVCAR-5 ovarian): 4.17 µM | TGI (OVCAR-5 ovarian): 14.7 µM | GI50 (PC-3 prostate): 2.14 µM | TGI (PC-3 prostate): 5.65 µM | GI50 (SF-295 CNS): 7.02 µM | TGI (SF-295 CNS): 30.6 µM | GI50 (SK-OV-3 ovarian): 7.07 µM | TGI (SK-OV-3 ovarian): 19.1 µM | GI50 (T-47D breast): 2.23 µM | TGI (T-47D breast): 6.17 µM | GI50 (SR leukemia): 2.11 µM | TGI (SR leukemia): 5.14 µM | GI50 (HOP-62 NSCLC): 1.77 µM | TGI (HOP-62 NSCLC): 3.23 µM | GI50 (U251 CNS): 1.81 µM | TGI (U251 CNS): 3.5 µM | GI50 (HT29 colon): 1.93 µM | TGI (HT29 colon): 3.5 µM | GI50 (UACC-62 melanoma): 2.5 µM | TGI (UACC-62 melanoma): 8.06 µM | GI50 (A549 NSCLC): 1.74 µM | TGI (A549 NSCLC): 3.61 µM | GI50 (NCI-H460 lung): 2.05 µM | TGI (NCI-H460 lung): 4.52 µM | GI50 (NCI/ADR-RES ovarian): 1.87 µM | TGI (NCI/ADR-RES ovarian): 3.58 µM | GI50 (SW-620 colon): 1.89 µM | TGI (SW-620 colon): 3.74 µM | GI50 (OVCAR-8 ovarian): 1.96 µM | TGI (OVCAR-8 ovarian): 4.26 µM | GI50 (OVCAR-4 ovarian): 1.64 µM | TGI (OVCAR-4 ovarian): 3.1 µM | GI50 (SK-MEL-28 melanoma): 1.78 µM | TGI (SK-MEL-28 melanoma): 3.48 µM | GI50 (HS 578T breast): 2.31 µM | TGI (HS 578T breast): 7.51 µM | GI50 (MDA-MB-435): 1.62 µM | TGI (MDA-MB-435): 3.45 µM | GI50 (EKVX NSCLC): 3.37 µM | TGI (EKVX NSCLC): 15.9 µM | GI50 (SN12C renal): 2.71 µM | TGI (SN12C renal): 10.2 µM | GI50 (NCI-H522 lung): 1.99 µM | TGI (NCI-H522 lung): 4.32 µM | GI50 (MALME-3M melanoma): 1.83 µM | TGI (MALME-3M melanoma): 3.95 µM | GI50 (OVCAR-3 ovarian): 1.92 µM | TGI (OVCAR-3 ovarian): 3.58 µM | GI50 (LOX IMVI melanoma): 1.63 µM | TGI (LOX IMVI melanoma): 3.01 µM | GI50 (SNB-75 CNS): 1.5 µM | TGI (SNB-75 CNS): 3.78 µM | GI50 (HOP-92 NSCLC): 11.7 µM | TGI (HOP-92 NSCLC): 26.9 µM | GI50 (RPMI-8226 leukemia): 2.91 µM | TGI (RPMI-8226 leukemia): 12.2 µM | GI50 (HCT-15 colon): 2.04 µM | TGI (HCT-15 colon): 4.47 µM | GI50 (KM12 colon): 2.54 µM | TGI (KM12 colon): 6.53 µM | GI50 (NCI-H23 lung): 1.65 µM | TGI (NCI-H23 lung): 3.59 µM | GI50 (NCI-H226 lung): 8.22 µM | TGI (NCI-H226 lung): 23.2 µM | GI50 (MDA-MB-231 breast): 1.63 µM | TGI (MDA-MB-231 breast): 4.18 µM | GI50 (HL-60(TB) leukemia): 2.76 µM | TGI (HL-60(TB) leukemia): 7.83 µM | GI50 (DU-145 prostate): 2.53 µM | TGI (DU-145 prostate): 5.06 µM | GI50 (786-0 renal): 1.8 µM | TGI (786-0 renal): 3.9 µM | GI50 (ACHN renal): 3.19 µM | TGI (ACHN renal): 11.9 µM | GI50 (RXF 393 renal): 1.89 µM | TGI (RXF 393 renal): 3.72 µM | GI50 (SNB-19 CNS): 2.08 µM | TGI (SNB-19 CNS): 5.14 µM | GI50 (SF-268 CNS): 2.16 µM | TGI (SF-268 CNS): 4.37 µM | GI50 (TK-10 renal): 2.83 µM | TGI (TK-10 renal): 4.88 µM | GI50 (HCT-116 colon): 1.49 µM | TGI (HCT-116 colon): 2.81 µM | GI50 (UO-31 renal): 2.3 µM | TGI (UO-31 renal): 11 µM | GI50 (UACC-257 melanoma): 1.89 µM | TGI (UACC-257 melanoma): 4.35 µM | GI50 (M14 melanoma): 1.52 µM | TGI (M14 melanoma): 2.98 µM | GI50 (MOLT-4 leukemia): 2.52 µM | TGI (MOLT-4 leukemia): 7.1 µM | GI50 (SK-MEL-2 melanoma): 2.87 µM | TGI (SK-MEL-2 melanoma): 6.81 µM | GI50 (HCC-2998 colon): 4.68 µM | TGI (HCC-2998 colon): 15.9 µM | GI50 (BT-549 breast): 1.38 µM | TGI (BT-549 breast): 3.11 µM | GI50 (A498 renal): 3.36 µM | TGI (A498 renal): 16.5 µM | GI50 (CCRF-CEM leukemia): 2.07 µM | TGI (CCRF-CEM leukemia): 4.93 µM | GI50 (MCF7 breast): 1.33 µM | TGI (MCF7 breast): 2.83 µM | GI50 (SF-539 CNS): 2.24 µM | TGI (SF-539 CNS): 5 µM | GI50 (CAKI-1 renal): 4.08 µM | TGI (CAKI-1 renal): 20.3 µM | GI50 (IGROV1 ovarian): 2.12 µM | TGI (IGROV1 ovarian): 4.42 µM | GI50 (K-562 leukemia): 2.11 µM | TGI (K-562 leukemia): 4.48 µM | GI50 (COLO 205 colon): 2.32 µM | TGI (COLO 205 colon): 5.23 µM
